As usually defined, the ED50 is the dose that gives a 50% effect, or the effect in half of the subjects. Low values mean an effect at a small dose, high ones a need for a large dose.

Molecules are shown by their SMILES.

This experiment concerns benzodiazepine receptors. As to the kind of experiment: in vivo displacement of 3H-flunitrazepam specific binding from brain benzodiazepine receptors in mice. The note with it: dose reducing specific 3H-flunitrazepam binding in living mouse brain to 50% of control; test substance i.p. 15 min before i.v. 3H-FNM; female mice; forebrain. An excerpt: The pharmaceutical properties of the compounds of the invention can be illustrated by determining their capability for displacing radioactive labelled flunitrazepam from benzodiazepine receptors.
The displacement activity of the compounds of the invention may be found by determining the ED50 value. The ED50 value represents the dose (mg/kg) of a test substance which causes the specific binding of flunitrazepam to benzodiazepine receptors in a living brain to be reduced to 50% of the control value.
Such an in vivo test is carried out as follows:
Principle. Twenty minutes after a dose of ^3 H-flunitrazepam (^3 H-FNM) (200 μCi/kg, i.v.) the amount of specific ^3 H-FNM binding to brain benzodiazepine receptors has reached its maximal value.
Test procedure. Suspensions of test substances (2 mg/ml) are prepared in 5% Duphasol-X (TM Duphar, castor oil-ethylene oxide derivative for emulsifying and solubilizing oil and other water-insoluble substances) by sonification for 10 min using a Branson B15 microtip ultrasonifier (setting 7). Groups of three mice (female, NMR, 18-22 grams) are injected with the test substance at 100 mg/kg intraperitoneally. Fifteen minutes after test substance administration the mice are challenged with 4 μCi intravenously of ^3 H-FNM (70-90 Ci/mole) in 200 μl physiological saline. Twenty minutes after ^3 H-FNM administration mice are sacrificed by decapitation, the forebrains rapidly excised (within 30 sec) and homogenized in 12 ml of icecold 25 mM KH2 PO4, pH 7.1, using an Ultra-Turrax homogenizer fitted with an N 10 shaft. […] The amounts of radioactivity on the filters are determined by conventional scintillation counting. […]
Results. The ED50 value is determined from dose response curves. If only one dose of test substance is administered the ED50 value is calculated as follows, provided that the inhibition of specific binding is within the range of 25-75%: [formula] where Co is specific binding in controls and Cx is specific binding in mice treated with test substance.
For orientation: Loss of bound radioactivity is the signal in a displacement assay; it reports binding, not function.
As to `Cc1nc2ccccc2n2cnc(-c3noc(C4CC4)n3)c12` [Compound 7, 3-(5-Cyclopropyl-1,2,4-oxadiazol-3-yl)-4-methyl-imidazo[1,5-a]quinoxaline], the ED50 is given as 1.3 mg/kg. Under `Cc1nc2ccccc2n2cnc(-c3nc(C4CC4)no3)c12` [Compound 10, 3-(3-Cyclopropyl-1,2,4-oxadiazol-5-yl)-4-methyl-imidazo[1,5-a]quinoxaline] stands 3.5 mg/kg. With `Cc1nc(-c2ncn3c2c(C)nc2ccccc23)no1` [Compound 8, 4-Methyl-3-(5-methyl-1,2,4-oxadiazol-3-yl)-imidazo[1,5-a]quinoxaline] the figure was 1.8 mg/kg.

The record behind these values is patent publication US5034530A, “Imidazoquinoxaline compounds and their preparation and use” (Novo Nordisk A/S, priority 1988, dated 1991).
